Where “and” joins values, the source holds several entries; their conditions need not be identical. Equal entries are not always repeated.
Assay: Propofol phase-solubility tests with cyclodextrins according to the method of Higuchi and Connors
Details: 25 °C, water, thermodynamic from solid
Protocol: A large excess of propofol is added to 1.4 ml of the appropriate cyclodextrin solution. The resulting mixtures are vortexed for about 5 min and stirred at a temperature 25±0.5° C. for 24 hours. About 1 ml of the solution is transferred using a Pasteur pipette into an Eppendorf tube. Afterwards, these tubes are centrifuged for 30 min at 13,200 rpm. Afterwards, 40 μl of the aqueous phase are sampled and then diluted to 1/10 in ethanol and to 40/1,000 in a solution of acetonitrile and an ammonia buffer pH 9.2. Afterwards, these samples are filtered through a 0.2 μm filter and then put in vial before analysis by high-performance liquid chromatography with UV detection. The injection volume was 10 microliters (cf. injection loop). […] The stability constants Kc are estimated from the slope of the line of the phase-solubility diagram according to the following equation: Kc=slope/S0 (1−slope).
The stability constant Kc is calculated from the slope of the line of the phase-solubility diagram according to the following equation: Kc=slope/S0(1−slope).
The used 2-hydropropyl-β-cyclodextrin is still that one selected before (HPB-LB). […]
The results of the solubility tests have been analysed again more particularly with the complexation efficiency (CE), calculated using the equation: […]

SMILES: CC(C)c1cccc(C(C)C)c1O [propofol, 2,6-bis(propan-2-yl)phenol]
- solubility at 24 h: 1070 µM and 190 µg/mL
